From ChEMBL document CHEMBL5352384, “Identification of new FK866 analogues with potent anticancer activity against pancreatic cancer” (Eur J Med Chem, 2022)
Active and inactive are the calls of the source. The rule behind the calls is not given here.

Assays:
[1] = tested on: Jurkat; assay: Antiproliferative activity against human Jurkat cells assessed as inhibition of cell growth measured after 72 hrs by XTT assay; assay type: functional, cell-based
[2] = tested on: MIA PaCa-2; assay: Antiproliferative activity against human MIA PaCa-2 cells assessed as inhibition of cell growth measured after 72 hrs by XTT assay; assay type: functional, cell-based; conditions: MIA PaCa-2, 72 h
[3] = tested on: PANC-1; assay: Antiproliferative activity against human PANC-1 cells assessed as inhibition of cell growth measured after 72 hrs by XTT assay; assay type: functional, cell-based; conditions: PANC-1, 72 h
[4] = tested on: BXPC-3; assay: Antiproliferative activity against human BXPC-3 cells assessed as inhibition of cell growth measured after 72 hrs by XTT assay; assay type: functional, cell-based; conditions: BXPC-3, 72 h
[5] = tested on: Jurkat; assay: Induction of apoptosis in human Jurkat cells assessed as caspase-3 cleavage at 10 nM measured after 96 hrs by flow cytometry analysis; assay type: functional, cell-based
[6] = tested on: Jurkat; assay: Induction of apoptosis in human Jurkat cells assessed as cell death at upto 1000 nM measured after 96 hrs by annexin V and 7AAD double staining based flow cytometry analysis; assay type: functional
[7] = tested on: Jurkat; assay: Antiproliferative activity against human Jurkat cells assessed as reduction in cell viability at 10 nM incubated for 96 hrs in presence of NMN by annexin V and 7AAD double staining based flow cytometry analysis; assay type: functional
[8] = tested on: Jurkat; assay: Antiproliferative activity against human Jurkat cells assessed as reduction in cell viability at 10 nM incubated for 96 hrs in presence of NAD+ by annexin V and 7AAD double staining based flow cytometry analysis; assay type: functional
[9] = tested on: PANC-1; assay: Cytotoxicity against human PANC-1 cells assessed as reduction in cell viability measured after 72 hrs by resazurin staining based fluorescent plate reader; assay type: functional; conditions: PANC-1, 72 h

Row | Structure (SMILES) | IC50 [1] | IC50 [2] | also measured
1 | O=C(/C=C/c1ccc(Cl)nc1Cl)NCCCCC1CCN(C(=O)c2ccccc2)CC1 | 2500 nM |  | 
2 | O=C(/C=C/c1cccnc1)NCC(O)CCC1CCN(C(=O)c2ccccc2)CC1 (centres undefined) | 3500 nM |  | 
3 | O=Cc1cccc(C(=O)N2CCC(CCCCNC(=O)/C=C/c3cccnc3)CC2)c1 | 40 nM |  | 
4 | COc1cccc(OC)c1C(=O)N1CCC(CCCCNC(=O)/C=C/c2cccnc2F)CC1 | 6.5 nM | 24 nM | IC50 [3]: 5.7 nM
5 | O=C(/C=C/c1cccnc1)NCCCCC1CCN(C(=O)CCc2ccccc2)CC1 | 28 nM |  | 
6 | COc1cc(C(=O)N2CCC(CCCCNC(=O)/C=C/c3cccnc3)CC2)cc(OC)c1OC | 10 nM |  | 
7 | COc1ccccc1C(=O)N1CCC(CCCCNC(=O)/C=C/c2cccnc2)CC1 | 2.3 nM | 1 nM | IC50 [4]: 0.5 nM; Activity [5]: Active; Activity [6]: Active; IC50 [3]: 0.08 nM; Activity [7]: inactive; Activity [8]: inactive
8 | O=C(/C=C/c1cccnc1)NCCCCC1CCN(C(=O)c2ccc(C(F)(F)F)cc2)CC1 | > 1000 nM |  | 
9 | O=C(/C=C/c1cnccn1)NCCCCC1CCN(C(=O)c2ccccc2)CC1 | > 1000 nM |  | 
10 | CC(=O)c1cccc(C(=O)N2CCC(CCCCNC(=O)/C=C/c3cccnc3)CC2)c1 | 850 nM |  | 
11 | O=C(/C=C/c1cccnc1)NCCCCC1CCN(C(=O)C2CCCCO2)CC1 (centres undefined) | 50 nM |  | 
12 | COc1cc(OC)c(C(=O)N2CCC(C/C=C/CNC(=O)/C=C/c3cccnc3)CC2)c(OC)c1 | 3 nM | 0.8 nM | IC50 [4]: 2.8 nM; IC50 [3]: 0.4 nM
13 | O=C(/C=C/c1cccnc1)NC/C=C/C1CCN(C(=O)c2ccccc2)CC1 | 100 nM |  | 
14 | COc1cccc(OC)c1C(=O)N1CCC(CCCCNC(=O)/C=C/c2ccnnc2)CC1 | 35 nM | 25 nM | IC50 [4]: 15.6 nM
15 | COc1cccc(OC)c1C(=O)N1CCC(OCCCNC(=O)/C=C/c2cccnc2)CC1 | 850 nM |  | 
16 | O=C(/C=C/c1cccnc1)NCCCOC1CCN(C(=O)c2ccccc2)CC1 | 800 nM |  | 
17 | Cc1ccc(S(=O)(=O)N2CCC(CCCCNC(=O)/C=C/c3cccnc3)CC2)cc1 | 400 nM |  | 
18 | COc1ccc(C(=O)N2CCC(CCCCNC(=O)/C=C/c3cccnc3)CC2)c(OC)c1 | 8.4 nM | 4 nM | IC50 [4]: 24 nM; IC50 [3]: 0.2 nM
19 | COc1ccc(C(=O)N2CCC(CCCCNC(=O)/C=C/c3cccnc3)CC2)cc1 | 100 nM |  | 
20 | O=C(/C=C/c1cccnc1)NCCCCC1CCN(C(=O)C2CCCOC2)CC1 (centres undefined) | 35 nM |  | 
21 | O=C(/C=C/c1ccnnc1)NCCCCC1CCN(C(=O)c2ccccc2)CC1 | 33 nM | 69 nM | IC50 [4]: 19.4 nM
22 | O=C(NCCCc1cn[nH]c1)c1ccc(-c2ccncc2)c(C#Cc2ccc(F)cc2)c1 |  |  | EC50 [9]: 3.5 nM
23 | COc1cc(C=O)cc(OC)c1C(=O)N1CCC(CCCCNC(=O)/C=C/c2cccnc2)CC1 | 0.4 nM | 0.25 nM | IC50 [4]: 13 nM; IC50 [3]: 1.9 nM
24 | O=C(/C=C/c1cccnc1)NCCCCC1CCN(C(=O)C2CCCCC2)CC1 | 32 nM |  | 
25 | COc1cc(C=O)cc(OC)c1C(=O)N1CCC(CCCCNC(=O)/C=C/c2cccnc2F)CC1 | 0.8 nM | 3 nM | IC50 [4]: 53 nM; IC50 [3]: 16 nM
26 | O=C(/C=C/c1cccnc1)NCCCCC1CCN(C(=O)c2ccc(F)cc2)CC1 | 10 nM |  | 
27 | O=C(/C=C/c1cccnc1)NCCCCC1CCN(C(=O)c2ccc(CO)cc2)CC1 | 34 nM |  | 
28 | O=C(/C=C/c1cccnc1)NCCCCC1CCN(S(=O)(=O)c2ccccc2)CC1 | 16 nM |  | 

Row | Structure (SMILES) | IC50 [1] | IC50 [2] | also measured
29 | COc1cc(OC)c(C(=O)N2CCC(CCCCNC(=O)/C=C/c3cccnc3)CC2)c(OC)c1 | 1 nM | 0.16 nM | IC50 [4]: 1.7 nM; Activity [5]: Active; Activity [6]: Active; IC50 [3]: 0.9 nM; Activity [7]: inactive; Activity [8]: inactive
30 | COc1cccc(OC)c1C(=O)N1CCC(C/C=C/CNC(=O)/C=C/c2cccnc2)CC1 | 5 nM | 2.7 nM | IC50 [4]: 0.4 nM; IC50 [3]: 2.3 nM
31 | O=C(/C=C/c1cccnc1)NC/C=C/CC1CCN(C(=O)c2ccccc2)CC1 | 10 nM | 13 nM | IC50 [4]: 34 nM; IC50 [3]: 8.6 nM
32 | O=C(/C=C/c1cccnc1)NCCCCC1CCN(C(=O)C2CCCO2)CC1 (centres undefined) | 30 nM |  | 
33 | COc1cccc(OC)c1C(=O)N1CCC(CCCCNC(=O)/C=C/c2cnccn2)CC1 | > 1000 nM |  | 
34 | COc1ccc(C(=O)N2CCC(CCCCNC(=O)/C=C/c3cccnc3)CC2)cc1OC | 32 nM |  | 
35 | O=C(/C=C/c1cccnc1)NCCCCC1CCN(C(=O)C2CCOCC2)CC1 | 30 nM |  | 
36 | O=C(/C=C/c1cccnc1)NCCCCC1CCN(C(=O)c2ccc([N+](=O)[O-])cc2)CC1 | 68 nM |  | 
37 | O=C(/C=C/c1cccnc1)NCCCCC1CCN(C(=O)c2ccccc2)CC1 [DAPORINAD] | 0.6 nM | 2.2 nM | IC50 [4]: 0.3 nM; Activity [5]: Active; Activity [6]: Active; IC50 [3]: 0.6 nM
38 | O=C(/C=C/c1cccnc1)NCCCCC1CCN(C(=O)Cc2ccccc2)CC1 | 18 nM |  | 
39 | COc1cccc(C(=O)N2CCC(CCCCNC(=O)/C=C/c3cccnc3)CC2)c1 | 9 nM |  | 
40 | O=C(/C=C/c1ccc(F)nc1F)NCCCCC1CCN(C(=O)c2ccccc2)CC1 | 6.7 nM | 13.5 nM | IC50 [4]: 31 nM; IC50 [3]: 14 nM
41 | COc1cccc(C(=O)N2CCC(CCCCNC(=O)/C=C/c3cccnc3)CC2)c1OC | 3.6 nM | 4.5 nM | IC50 [4]: 25 nM; Activity [5]: Active; Activity [6]: Active; IC50 [3]: 3.2 nM; Activity [7]: inactive; Activity [8]: inactive
42 | O=C(/C=C/c1cccnc1)NCCC1CCN(C(=O)c2ccccc2)CC1 | > 200 nM |  | 
43 | O=C(/C=C/c1cccnc1Cl)NCCCCC1CCN(C(=O)c2ccccc2)CC1 | 2500 nM |  | 
44 | O=C(/C=C/c1cccnc1)NCCCCC1CCN(C(=O)c2ccccc2O)CC1 | 5.8 nM | 3.9 nM | IC50 [4]: 8.1 nM; IC50 [3]: 1.3 nM
45 | COc1ccc(C(=O)N2CCC(CCCCNC(=O)/C=C/c3cccnc3)CC2)c(OC)c1OC | 28 nM |  | 
46 | O=C(/C=C/c1cccnc1)NCCCCC1CCN(C(=O)/C=C/c2ccccc2)CC1 | 36 nM |  | 
47 | COc1cccc(OC)c1C(=O)N1CCC(CCCCNC(=O)/C=C/c2cccnc2)CC1 | 0.8 nM | 0.5 nM | IC50 [4]: 0.004 nM; Activity [5]: Active; Activity [6]: Active; IC50 [3]: 0.6 nM; Activity [7]: inactive; Activity [8]: inactive
48 | CC(=O)c1ccc(C(=O)N2CCC(CCCCNC(=O)/C=C/c3cccnc3)CC2)cc1 | 800 nM |  | 
49 | COc1ccc(OC)c(C(=O)N2CCC(CCCCNC(=O)/C=C/c3cccnc3)CC2)c1 | 4.3 nM | 3.9 nM | IC50 [4]: 13 nM; IC50 [3]: 2.8 nM
50 | O=C(/C=C/c1cccnc1)NCCCCC1CCN(C(=O)C2CCC(=O)N2)CC1 (centres undefined) | 350 nM |  | 
51 | O=C(/C=C/c1ccc[n+]([O-])c1)NCCCCC1CCN(C(=O)c2ccccc2)CC1 | 100 nM |  | 
52 | O=Cc1ccc(C(=O)N2CCC(CCCCNC(=O)/C=C/c3cccnc3)CC2)cc1 | 20 nM |  | 
53 | O=C(/C=C/c1cccnc1)NCC1OC1CC1CCN(C(=O)c2ccccc2)CC1 (centres undefined) | 2500 nM |  | 
54 | O=C(/C=C/c1cccnc1F)NCCCCC1CCN(C(=O)c2ccccc2)CC1 | 2.3 nM | 4 nM | 
55 | COc1cccc(OC)c1C(=O)N1CCC(CCCCNC(=O)/C=C/c2ccc(F)nc2F)CC1 | 73 nM | 75 nM | IC50 [3]: 2 nM
